Data published in the supplement of paper PMC10307832.

Compound: Nc1ccn([C@@H]2O[C@H](CO)[C@@H](O)C2(F)F)c(=O)n1 [Gemcitabine]
Experiment: relative viability (nuclei count vs DMSO), 5 days (fraction); higher = more cells survive
Summary of the method: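 Nuclei counted with MetaXpress define viability as the ratio of treated to vehicle wells, given as a median across plates. The lung cancer cell lines were in 1536-well plates, pinned with five √10-spaced library-drug doses and imaged at 4× after 5 days and Hoechst staining. Plates passed with control CV below 25% and at least one doubling.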

| Cell Line | relative viability (0.001 µM) | relative viability (0.003162 µM) | relative viability (0.01 µM) | relative viability (0.03162 µM) | relative viability (0.1 µM) |
| --- | --- | --- | --- | --- | --- |
| 201T | 0.939 | 0.958 | 0.988 | 0.697 | 0.482 |
| A-427 | 0.96 | 0.867 | 0.584 | 0.293 | 0.143 |
| ABC-1 | 0.965 | 0.823 | 0.703 | 0.291 | 0.235 |
| BEN | 0.973 | 0.726 | 0.282 | 0.152 | 0.117 |
| CAL-12T | 1.04 | 0.935 | 0.643 | 0.206 | 0.14 |
| COR-L23 | 0.992 | 0.941 | 0.701 | 0.117 | 0.0953 |
| COR-L 105 | 0.947 | 0.934 | 0.572 | 0.269 | 0.234 |
| Calu-6 | 0.975 | 0.649 | 0.33 | 0.147 | 0.129 |
| ChaGo-K-1 | 1.07 | 0.871 | 0.538 | 0.265 | 0.219 |
| EKVX | 0.943 | 0.766 | 0.461 | 0.201 | 0.139 |
| EMC-BAC-2 | 0.89 | 0.996 | 0.642 | 0.267 | 0.226 |
| EPLC-272H | 1.05 | 1.01 | 0.591 | 0.113 | 0.0839 |
| H3255 | 0.981 | 0.781 | 0.631 | 0.297 | 0.198 |
| HARA | 1.03 | 0.984 | 0.971 | 0.469 | 0.118 |
| HCC-15 | 1.04 | 1.06 | 0.941 | 0.468 | 0.108 |
| HCC-44 | 0.99 | 0.815 | 0.935 | 0.527 | 0.264 |
| HCC-78 | 0.849 | 0.595 | 0.436 | 0.255 | 0.237 |
| HCC-366 | 0.992 | 0.939 | 0.535 | 0.0641 | 0.0314 |
| HCC-827 | 1.05 | 0.928 | 0.783 | 0.51 | 0.252 |
| HOP-62 | 0.923 | 0.855 | 0.176 | 0.103 | 0.0838 |
| IA-LM | 0.963 | 0.88 | 0.74 | 0.108 | 0.0519 |
| LC-2-ad | 1.03 | 0.763 | 0.762 | 0.316 | 0.159 |
| LCLC-97TM1 | 0.909 | 0.455 | 0.139 | 0.0859 | 0.0792 |
| LCLC-103H | 0.933 | 1.07 | 1 | 0.769 | 0.376 |
| LK-2 | 0.997 | 0.915 | 0.708 | 0.255 | 0.187 |
| LOU-NH91 | 0.982 | 0.788 | 0.585 | 0.338 | 0.301 |

| Cell Line | relative viability (0.001 µM) | relative viability (0.003162 µM) | relative viability (0.01 µM) | relative viability (0.03162 µM) | relative viability (0.1 µM) |
| --- | --- | --- | --- | --- | --- |
| LU99A | 0.864 | 1.08 | 0.932 | 1.01 | 0.918 |
| LXF-289 | 1.01 | 0.977 | 0.826 | 0.206 | 0.123 |
| NCI-H23 | 0.898 | 0.299 | 0.144 | 0.146 | 0.139 |
| NCI-H322M | 0.813 | 0.375 | 0.295 | 0.281 | 0.304 |
| NCI-H358 | 0.972 | 0.415 | 0.179 | 0.154 | 0.157 |
| NCI-H441 | 0.993 | 0.63 | 0.292 | 0.13 | 0.139 |
| NCI-H460 | 1.03 | 0.963 | 0.774 | 0.0431 | 0.0112 |
| NCI-H520 | 1.05 | 0.942 | 0.43 | 0.22 | 0.165 |
| NCI-H522 | 1.12 | 0.812 | 0.418 | 0.42 | 0.388 |
| NCI-H596 | 1.32 | 0.929 | 0.564 | 0.31 | 0.283 |
| NCI-H647 | 0.786 | 0.202 | 0.0889 | 0.0675 | 0.0582 |
| NCI-H650 | 0.878 | 0.316 | 0.195 | 0.157 | 0.165 |
| NCI-H661 | 1.05 | 0.941 | 0.808 | 0.305 | 0.259 |
| NCI-H727 | 0.802 | 0.567 | 0.347 | 0.332 | 0.32 |
| NCI-H838 | 0.987 | 1.15 | 1.05 | 0.467 | 0.153 |
| NCI-H1355 | 0.987 | 0.818 | 0.392 | 0.187 | 0.152 |
| NCI-H1395 | 0.779 | 0.594 | 0.422 | 0.365 | 0.364 |
| NCI-H1437 | 1.01 | 0.854 | 0.705 | 0.362 | 0.21 |
| NCI-H1563 | 0.998 | 0.983 | 0.866 | 0.538 | 0.49 |
| NCI-H1648 | 0.846 | 0.771 | 0.999 | 0.413 | 0.283 |
| NCI-H1650 | 1.04 | 0.572 | 0.271 | 0.154 | 0.163 |
| NCI-H1651 | 0.987 | 0.955 | 0.929 | 0.285 | 0.141 |
| NCI-H1666 | 0.965 | 1 | 0.909 | 0.61 | 0.412 |
| NCI-H1703 | 0.699 | 0.264 | 0.138 | 0.126 | 0.115 |
| NCI-H1734 | 0.984 | 0.856 | 0.263 | 0.121 | 0.125 |
| NCI-H1755 | 0.97 | 1 | 0.943 | 0.633 | 0.305 |

| Cell Line | relative viability (0.001 µM) | relative viability (0.003162 µM) | relative viability (0.01 µM) | relative viability (0.03162 µM) | relative viability (0.1 µM) |
| --- | --- | --- | --- | --- | --- |
| NCI-H1792 | 1.06 | 0.43 | 0.165 | 0.127 | 0.0999 |
| NCI-H1793 | 1.02 | 1.04 | 0.565 | 0.168 | 0.146 |
| NCI-H1915 | 0.981 | 1.03 | 0.98 | 0.865 | 0.475 |
| NCI-H1944 | 1 | 0.995 | 0.821 | 0.496 | 0.235 |
| NCI-H1975 | 0.984 | 1.1 | 0.648 | 0.216 | 0.174 |
| NCI-H1993 | 0.974 | 0.958 | 0.604 | 0.441 | 0.558 |
| NCI-H2009 | 1.01 | 0.746 | 0.24 | 0.167 | 0.114 |
| NCI-H2023 | 1.03 | 0.92 | 0.444 | 0.103 | 0.0642 |
| NCI-H2085 | 1.05 | 0.954 | 0.852 | 0.792 | 0.439 |
| NCI-H2087 | 1.04 | 0.852 | 0.349 | 0.132 | 0.118 |
| NCI-H2126 | 0.971 | 1 | 0.906 | 0.77 | 0.458 |
| NCI-H2170 | 0.99 | 0.999 | 0.86 | 0.498 | 0.158 |
| NCI-H2228 | 0.973 | 0.695 | 0.235 | 0.161 | 0.132 |
| NCI-H2342 | 0.922 | 0.972 | 0.777 | 0.438 | 0.305 |
| NCI-H2347 | 1 | 0.915 | 0.68 | 0.492 | 0.381 |
| NCI-H2405 | 0.995 | 0.66 | 0.533 | 0.268 | 0.211 |
| NCI-H3122 | 0.975 | 1.04 | 0.913 | 0.214 | 0.14 |
| PC-3 [JPC-3] | 1.1 | 0.779 | 0.771 | 0.36 | 0.373 |
| PC-14 | 0.97 | 0.407 | 0.151 | 0.0526 | 0.0522 |
| RERF-LC-KJ | 1.01 | 1 | 0.973 | 0.496 | 0.247 |
| SK-LU-1 | 1.01 | 0.479 | 0.243 | 0.191 | 0.228 |
| SK-MES-1 | 0.945 | 0.473 | 0.216 | 0.203 | 0.17 |
| SW 900 | 0.802 | 0.424 | 0.153 | 0.134 | 0.141 |
| SW 1573 | 0.911 | 0.736 | 0.239 | 0.101 | 0.0671 |
| UMC-11 | 1.04 | 0.992 | 0.974 | 0.869 | 0.375 |
